From patent publication US9510570B2, “CD81 and OCLN double transgenic mouse and its construction methods” (WUHAN INSTITUTE OF VIROLOGY, CAS, priority 2013, dated 2016)

Tested on: HCV
Assay: Pharmacodynamic evaluation of antiviral drug in C/O^Tg mice by acute HCV infection (HCV RNA copies by qRT-PCR)
Type: in vivo, C/O^Tg male mice
Conditions: for viral load in the peripheral blood: started 1 week after HCV injection
Description: Plasmid pJ399EM was transcribed in vitro (Han et al., 2009) to obtain a RNA, and then the RNA was electroporated into Huh7.5.1 cells (Pasteur Institute) for virus production during 96 hours and for collection, followed by ultrafiltration and purification to obtain HCV. The C/O^Tg double transgenic mice or the wile type mice were injected at tail-vein with HCV (TCID50=1×10^8/mL) within 1-2 minutes. The serum or liver tissue of the C/O^Tg double transgenic mice or the wile type mice were collected respectively at indicated time 0 hour to 12 months after infection. HCV RNA level in serum (genomes/mL) and liver (genomes/g) were measured by qRT-PCR. The program was performed as follows: 50° C. for 30 minutes, 95° C. for 10 minutes, followed by 50 cycles at 95° C. for 30 seconds, 58° C. for 30 seconds, and 72° C. for 30 seconds. Primers used for detection were as follows: sense (forward primer): […] (represented by SEQ ID NO. 5); anti-sense (reverse primer): […] (represented by SEQ ID NO. 6). The viral load in serum (genomes/mL) of the wild type mice after injection was: 53746900±747977 (12 hours), 25791242±8626787 (2 days), 7026±2797 (4 days), 433±73 (1 week), and then the viral copies in peripheral blood of wild type mice was undetectable after one week. The viral load in peripheral blood (genomes/mL) of the C/O^Tg double transgenic mice after injection was: 3598678±3016340 (12 hours), 1607875±1304933 (2 days), 228942±174178 (4 days), 64505±6821 (1 week), 67622±4612 (2 weeks), 33671±13347 (3 weeks), 6921±4272 (1 month), 6739±4783 (2 months), 403±95 (3 months), 534±125 (4 months), 1375±198 (6 months), 4781±2969 (10 months), 2067±277 (12 months). […] The viral copies cannot be detectable in liver of the wile type mice after injection. The viral copies in the liver (genomes/g) of the C/O^Tg double transgenic mice after injection was: 149676500±26422459.09 (12 hours), 68863260±26554660 (2 days), 30167166±14023164 (4 days), 48183923±49326087 (1 week), 5221675±782099 (2 weeks), 4723475±570250 (3 weeks), 5649760±3372903 (1 month), 3597135±2671267 (2 months), 1831199±34834 (3 months), 3055570±565440 (4 months), 10729851±3954535 (6 months), 14392085±1902774 (10 months), 15543000±124774 (12 months). […] Meanwhile, the liver tissues were used for pathological analysis (H&E stain, Masson's stain), ultrasound, CT and other non-invasive imaging analysis to assess hepatitis, liver damage (fibrosis and cirrhosis) and other typical HCV pathology caused by HCV infection. The double transgenic mice infected by HCV express mild hepatitis symptoms (most ALT<40). The ALT level of the wild type mice was (U/L): 17.8±11.08 (uninfected), 10.5 0.51 (12 hours), 7.0±1.42 (2 days), 29.5±9.19 (4 days), 6.6±3.54 (1 weeks), 28.2±8.84 (2 weeks), 17.7±13.33 (1 month), 27.9±1.69 (2 months), 26.5±0.70 (3 months), 37.4±12.90 (4 months), 27.3±6.01 (10 months), 16.5±6.29 (12 months). The ALT level of the C/O^Tg double transgenic mice was (U/L): 17.8±11.01 (uninfected), 7.8±6.72 (12 hours), 28.0±1.25 (2 days), 57.3±3.88 (4 days), 16.3±7.72 (1 week), 61.0±5.65 (2 week), 21.2±11.16 (1 month), 19.6±0.68 (2 months), 27.4±10.25 (3 months), 36.3±4.06 (4 months), 35.7±5.44 (6 months), 19.5±3.79 (10 months), 232.3±26.89 (12 months). […] The prealbumin levels of the wild type mice after injection were maintained at normal levels (20˜30 mg/L), but the prealbumin levels of the C/O^Tg double transgenic mice cannot be detectable 4 days after infection. […]

Row | Compound | viral load in the peripheral blood (Ribavirin 20 mg/kg i.p. daily, treatment for 1 week) | viral load in the peripheral blood (Ribavirin 20 mg/kg i.p. daily, treatment for 4 weeks) | viral copies in the liver (Ribavirin 20 mg/kg i.p. daily, 1 week after Ribavirin injection) | viral copies in the liver (Ribavirin 20 mg/kg i.p. daily, 4 weeks after Ribavirin injection) | viral copies in the liver (Telaprevir 200 mg/kg i.p. daily, 1 week after Telaprevir injection)
1 | NC(=O)c1ncn([C@@H]2O[C@H](CO)[C@@H](O)[C@H]2O)n1 [Ribavirin] | cannot be detected | cannot be detected | 260±226 genomes/mg | 894±639 genomes/mg | –
2 | CCC[C@H](NC(=O)[C@@H]1[C@H]2CCC[C@H]2CN1C(=O)[C@@H](NC(=O)[C@@H](NC(=O)c1cnccn1)C1CCCCC1)C(C)(C)C)C(=O)C(=O)NC1CC1 [Telaprevir] | – | – | – | – | 273±301 genomes/mg
